Values quoted from earlier work, collected in article PMC3671928 (Analytical chemistry, 2013).

How the values were obtained:
U937 cells = settings: prolonged exposure to 1 μM
[1] = molecular target: leucine aminopeptidase (LAP); settings: read-out: IC50, leucine aminopeptidase (LAP)
peptidase activity = settings: 1 μM applied to cells for 24 h
[2] = molecular target: puromycin-sensitive aminopeptidase (PuSA); settings: read-out: IC50, puromycin-sensitive aminopeptidase (PuSA)
aminopeptidase N = settings: read-out: IC50, aminopeptidase N

- IC50 [1]: 100 nM
- inhibition of fragmentation of a fluorogenic substrate (peptidase activity): approximately 50%
- IC50 [2]: 150 nM
- IC50 (aminopeptidase N): 220 nM
Compound: CC(C)C[C@@H](C(=O)N[C@H](C(=O)OC1CCCC1)c1ccccc1)[C@H](O)C(=O)NO [Tosedostat]
- effect on proliferation of U937 cells (U937 cells): substantially inhibits proliferation
